Data taken from patent US20200016231A1, “BIOFILM DISRUPTING COMPOSITION” (Whiteley Corporation Pty Ltd, priority 2016, published 2020).
Like-named read-outs stand apart in the source and are kept apart here.

What was measured:
Pseudomonas aeruginosa = assay: Biofilm viability, resazurin assay, Pseudomonas aeruginosa clinical isolates; format: cell-based; settings: read-out: % bacterial viability; for viability at 10000 µM: GSH 10 mM; for viability at 15000 µM: GSH 15 mM; for viability at 30000 µM: GSH 30 mM
[1] = system: methicillin-sensitive Staphylococcus aureus; assay: microbe, parasite or virus in culture; format: cell-based; settings: MSSA
Protocol: The treatments shown in column 1 of Table 4 were tested against three strains of methicillin-sensitive Staphylococcus aureus. […] The treatments shown in column 1 of Table 12 were tested against three strains of methicillin-sensitive Staphylococcus aureus.

[2] = system: Staphylococcus agalactiae; assay: organism not typed; format: cell-based, Streptococcus agalactiae; settings: for viability at 10000 µM: GSH 10 mM; for viability at 15000 µM: GSH 15 mM; for viability at 30000 µM: GSH 30 mM
Protocol: The treatments shown in column 1 of Table 5 were tested against four strains of […] agalactiae, (veterinary strains ex Cow mastitis). […] The treatments shown in column 1 of Table 13 were tested against four strains of […] agalactiae, (veterinary strains ex Cow mastitis).

Klebsiella pneumoniae = assay: Biofilm viability, resazurin assay, Klebsiella pneumoniae clinical isolates; format: cell-based; settings: read-out: % bacterial viability; for viability at 10000 µM: GSH 10 mM; for viability at 15000 µM: GSH 15 mM; for viability at 30000 µM: GSH 30 mM
Protocol: (§1) Bacterial isolates were grown in Tryptone Soya Broth (TSB) medium for 24 hours at 37° C., in a shaking incubator set at 150 rpm. After this time the organisms were harvested by centrifugation (5000×g, 5 min at 10° C.). After centrifugation, the supernatant liquid was removed and the bacterial pellet was suspended in 1×Phosphate Buffered Saline (PBS). To initiate biofilm growth, the bacterial suspension from PBS was immediately re-suspended in TSB and 250 μL of bacterial cell suspension (OD600=0.5±0.05) were added into the wells of 96-well plates (Corning Corp. USA) and incubated at 37° C. for 48 h at 150 r.p.m.
(§2) After 24 h, treated biofilms supernatant were replaced with 200 μL of 1×PBS, followed by addition of 15 μL of a 0.05% w/v solution of resazurin (Sigma-Aldrich), and incubated further at 37° C., 150 r.p.m.
(§3) After a further 24 h, the fluorescent intensity of the biofilm was determined at Ex544 nm and Em590 nm (Tecan infinite M1000 pro microplate reader). Results are plotted as percentage (%) of bacterial vaiability calculated based on fluorescent intensity. Control or untreated bacterial biofilm fluorescent intensity always considered as 100% bacterial viability and % viability under rest of treatment conditions were calculated with reference to control.
(§4) It should be noted that the Resazurin assay works by recording fluorescence intensity and depends upon two factors (total number of bacteria and total number of viable bacteria in a given biofilm sample).
The treatments shown in column 1 of table 7 were tested against three clinical isolates of Klebsiella pneumoniae.

E. cloacae = assay: Biofilm viability, resazurin assay, Enterobacter species: E. cloacae; format: cell-based; settings: read-out: % bacterial viability; for viability at 10000 µM: GSH 10 mM; for viability at 15000 µM: GSH 15 mM; for viability at 30000 µM: GSH 30 mM
Protocol: as §1, §2, §3, §4
(§5) The treatments shown in column 1 of Table 8 were tested against three clinical isolates of Enterobacter species.

E aerogenes = assay: Biofilm viability, resazurin assay, Enterobacter species: E aerogenes; format: cell-based; settings: E aerogenes 359475 Sternum, read-out: % bacterial viability
Protocol: as §1, §2, §3, §4, §5

Escherichia coli = assay: Biofilm viability, resazurin assay, Escherichia coli clinical isolates; format: cell-based; settings: read-out: % bacterial viability; for viability at 10000 µM: GSH 10 mM; for viability at 15000 µM: GSH 15 mM; for viability at 30000 µM: GSH 30 mM
Protocol: as §1, §2, §3, §4
The treatments shown in column 1 of Table 9 were tested against three clinical isolates of Enterobacter species.

biofilms = settings: GSH at 30 milli Molar; also non-Pseudomonad organisms (FIGS. 1-13)
Protocol: as §1, with “r.p.m. […]” for “r.p.m.”
as §3, §4

[3] = system: Multidrug resistant Acinetobacter Baumannii, (MRAB); assay: microbe, parasite or virus in culture
[4] = read-out: % bacterial viability, S. agalactiae # 30
[5] = read-out: % bacterial viability, S. agalactiae # 44
[6] = read-out: % bacterial viability, S. agalactiae # 70
[7] = read-out: % bacterial viability, S. agalactiae # 88
[8] = read-out: % bacterial viability, S. agalactiae # 106
[9] = E. cloacae 359315 Left foot wound

N[C@@H](CCC(=O)N[C@@H](CS)C(=O)NCC(=O)O)C(=O)O [GSH, glutathione]
viability at 10000 µM (Pseudomonas aeruginosa; 364077 Scalp wound): 95.6% | viability at 15000 µM (Pseudomonas aeruginosa; 364077 Scalp wound): 93% | viability at 30000 µM (Pseudomonas aeruginosa; 364077 Scalp wound): 30.3% | viability at 10000 µM (Pseudomonas aeruginosa; 365707 Left ankle wound): 104% | viability at 15000 µM (Pseudomonas aeruginosa; 365707 Left ankle wound): 101% | viability at 30000 µM (Pseudomonas aeruginosa; 365707 Left ankle wound): 11.2% | viability at 10000 µM (Pseudomonas aeruginosa; PA0053 DFU): 89.8% | viability at 15000 µM (Pseudomonas aeruginosa; PA0053 DFU): 74.5% | viability at 30000 µM (Pseudomonas aeruginosa; PA0053 DFU): 7.3% | viability at 10000 µM ([1]; read-out: % bacterial viability, MSSA - 0800 DFU, GSH 10 mM): 82.4% | viability at 15000 µM ([1]; read-out: % bacterial viability, MSSA - 0800 DFU, GSH 15 mM): 61.7% | viability at 30000 µM ([1]; read-out: % bacterial viability, MSSA - 0800 DFU, GSH 30 mM): 20.1% | viability at 10000 µM ([1]; read-out: % bacterial viability, MSSA - 34397 Left elbow, GSH 10 mM): 88.7% | viability at 15000 µM ([1]; read-out: % bacterial viability, MSSA - 34397 Left elbow, GSH 15 mM): 61.3% | viability at 30000 µM ([1]; read-out: % bacterial viability, MSSA - 34397 Left elbow, GSH 30 mM): 1.06% | viability at 10000 µM ([1]; read-out: % bacterial viability, MSSA - 34654 Right toe, GSH 10 mM): 86.1% | viability at 15000 µM ([1]; read-out: % bacterial viability, MSSA - 34654 Right toe, GSH 15 mM): 70.5% | viability at 30000 µM ([1]; read-out: % bacterial viability, MSSA - 34654 Right toe, GSH 30 mM): 15.3% | viability at 10000 µM [2, 4]: 104% | viability at 15000 µM [2, 4]: 80.7% | viability at 30000 µM [2, 4]: 35.3% | viability at 10000 µM [2, 5]: 87% | viability at 15000 µM [2, 5]: 73.9% | viability at 30000 µM [2, 5]: 29.2% | viability at 10000 µM [2, 6]: 89.2% | viability at 15000 µM [2, 6]: 79.4% | viability at 30000 µM [2, 6]: 38.3% | viability at 10000 µM [2, 7]: 88% | viability at 15000 µM [2, 7]: 81.6% | viability at 30000 µM [2, 7]: 25% | viability at 10000 µM [2, 8]: 103% | viability at 15000 µM [2, 8]: 83.2% | viability at 30000 µM [2, 8]: 29.2% | viability at 10000 µM (Klebsiella pneumoniae; 374450 Catheter urine): 86% | viability at 15000 µM (Klebsiella pneumoniae; 374450 Catheter urine): 72.8% | viability at 30000 µM (Klebsiella pneumoniae; 374450 Catheter urine): 16.8% | viability at 10000 µM (Klebsiella pneumoniae; 377951 Left hip wound): 81.6% | viability at 15000 µM (Klebsiella pneumoniae; 377951 Left hip wound): 70.8% | viability at 30000 µM (Klebsiella pneumoniae; 377951 Left hip wound): 9.13% | viability at 10000 µM (Klebsiella pneumoniae; 385261 Neck wound): 78.8% | viability at 15000 µM (Klebsiella pneumoniae; 385261 Neck wound): 62.5% | viability at 30000 µM (Klebsiella pneumoniae; 385261 Neck wound): 14.1% | viability at 10000 µM (E. cloacae; E. cloacae 357768 Ear): 62.8% | viability at 15000 µM (E. cloacae; E. cloacae 357768 Ear): 38.9% | viability at 30000 µM (E. cloacae; E. cloacae 357768 Ear): 0% | viability at 10000 µM (E. cloacae; [9]): 84.7% | viability at 15000 µM (E. cloacae; [9]): 74% | viability at 30000 µM (E. cloacae; [9]): 19.5% | viability at 10000 µM (E aerogenes; GSH 10 mM): 79% | viability at 15000 µM (E aerogenes; GSH 15 mM): 55.1% | viability at 30000 µM (E aerogenes; GSH 30 mM): 14.6% | viability at 10000 µM (Escherichia coli; 362805 Exit): 75.7% | viability at 15000 µM (Escherichia coli; 362805 Exit): 71.8% | viability at 30000 µM (Escherichia coli; 362805 Exit): 0.7% | viability at 10000 µM (Escherichia coli; 365714 Wound): 108% | viability at 15000 µM (Escherichia coli; 365714 Wound): 93.4% | viability at 30000 µM (Escherichia coli; 365714 Wound): 12.3% | viability at 10000 µM (Escherichia coli; 366290 Drain fluid): 69.8% | viability at 15000 µM (Escherichia coli; 366290 Drain fluid): 68.7% | viability at 30000 µM (Escherichia coli; 366290 Drain fluid): 3.9% | killing/disrupting biofilms compared with antibiotics (biofilms): significantly higher effect than antibiotics | viability at 10000 µM ([3]; read-out: % bacterial viability, MRAB 1 014754 Urine, GSH 10 mM): 73.6% | viability at 15000 µM ([3]; read-out: % bacterial viability, MRAB 1 014754 Urine, GSH 15 mM): 55.6% | viability at 30000 µM ([3]; read-out: % bacterial viability, MRAB 1 014754 Urine, GSH 30 mM): 20.4% | viability at 10000 µM ([3]; read-out: % bacterial viability, MRAB 2 014801 Catheter, GSH 10 mM): 70.8% | viability at 15000 µM ([3]; read-out: % bacterial viability, MRAB 2 014801 Catheter, GSH 15 mM): 41.2% | viability at 30000 µM ([3]; read-out: % bacterial viability, MRAB 2 014801 Catheter, GSH 30 mM): 2.45% | viability at 10000 µM ([3]; read-out: % bacterial viability, MRAB 3 015069 Skin, GSH 10 mM): 84.6% | viability at 15000 µM ([3]; read-out: % bacterial viability, MRAB 3 015069 Skin, GSH 15 mM): 63.2% | viability at 30000 µM ([3]; read-out: % bacterial viability, MRAB 3 015069 Skin, GSH 30 mM): 37.7% | viability at 10000 µM ([3]; read-out: % bacterial viability, MRAB 4 015095 Hospital Environ, GSH 10 mM): 68% | viability at 15000 µM ([3]; read-out: % bacterial viability, MRAB 4 015095 Hospital Environ, GSH 15 mM): 57.7% | viability at 30000 µM ([3]; read-out: % bacterial viability, MRAB 4 015095 Hospital Environ, GSH 30 mM): 13.8% | viability at 10000 µM ([3]; read-out: % bacterial viability, MRAB 5 015103 Hospital Environ, GSH 10 mM): 65.1% | viability at 15000 µM ([3]; read-out: % bacterial viability, MRAB 5 015103 Hospital Environ, GSH 15 mM): 51.5% | viability at 30000 µM ([3]; read-out: % bacterial viability, MRAB 5 015103 Hospital Environ, GSH 30 mM): 16.7% | viability at 10000 µM ([3]; read-out: % bacterial viability, MRAB 12 016419 Catheter, GSH 10 mM): 80.8% | viability at 15000 µM ([3]; read-out: % bacterial viability, MRAB 12 016419 Catheter, GSH 15 mM): 49% | viability at 30000 µM ([3]; read-out: % bacterial viability, MRAB 12 016419 Catheter, GSH 30 mM): 18.4%
